Publication PMC11236999, “Antagonism of propofol anesthesia by alkyl-fluorobenzene derivatives” (Scientific Reports, 2024)
Entries after “also recorded” stand apart in the source; their conditions may differ. Where two headings read alike, the source gives them in different places.

Tests used:
5 dpf larval zebrafish [1] = test: Zebrafish behavioral model of anesthesia, elicited movement (EM, tap stimulus); assay type: in vivo; conditions: for Antagonism of propofol via EM: screen
Description: (§1) Figure 2 Screening of PFAL compounds for antagonism of anesthesia. PFAL compounds were screened in 5 dpf zebrafish for their ability to antagonize the anesthetic effects of propofol (panels a, b, c and d) as well as sevoflurane and isoflurane (panels e and f). Each dot represents the data collected from one fish. Spontaneous movement (SM) is the distance of spontaneous swimming in a 4 min period, and elicited movement (EM) is distance moved in 1 s after exposure to a tap stimulus. Both measures were scaled to same-day DMSO controls. […] Mean and 95% CI are shown for each data set. Statistical comparison with both DMSO (D) only (black asterisks) and anesthetic control (Ctrl, gray asterisks) groups are shown. Note that each DMSO comparison is to the DMSO only control (sample on the furthest left of each graph, and the anesthetic control comparisons are made within each anesthetic grouping as indicated by the bars along the x-axis of each graph. ns: P > 0.05, *: P ≤ 0.05, **: P ≤ 0.01, ***: P ≤ 0.001, ****: P ≤ 0.0001).
(§2) Behavioral experiments (screening, EC50 curves) were performed as previously reported. Antagonism after induction was conducted in a similar manner with different timepoints and solution changes as indicated. The DanioVision Observation Chamber (Noldus) and Ethovision XT16 software were used to track and record (1280 × 960 resolution at 25 frames per second) larval zebrafish (5 dpf) movement in glass 96-well plates (Zissner North America 3,600,500). All experiments were performed at 28 °C with the DanioVision Temperature Control Unit. Zebrafish were allowed to equilibrate in E3 and 2% DMSO (with or without drug) for 10 min before being placed in the observation chamber for 22 min of recording. Two different endpoints were used to assess depth of anesthesia: spontaneous movement (SM) and elicited movement (EM). In these measures, fish movement was considered to be non-anesthetized. During each observation, fish were given time to acclimate to the chamber, and minutes 15–19 of the recording were used for analysis of SM. An EM response using the Daniovision tapping device (8 out of 8 intensity, movement response measured for 1 s after stimulus) was also measured at the end of the SM observation period. All recordings were scrutinized by a blind observer for technical errors in tracking to ensure accuracy of zebrafish detection and inaccurate tracking was excluded from further analysis. Toxicity was measured in separate experiments by exposing larvae to compounds for 30 min, transferring to fresh E3, and then observing mortality after exposure. […]

5 dpf larval zebrafish [2] = test: Zebrafish behavioral model of anesthesia, spontaneous movement (SM); assay type: in vivo; conditions: for Antagonism of propofol via SM: screen; for Spontaneous movement (SM), compound alone: PFAL compound alone at 10 and 30 μM, versus DMSO control; for Antagonism of propofol via SM at 5 μM propofol: propofol 5 μM
Description: as §1, §2

[3] = HPLC concentration of volatile anesthetics in sealed glass 96-well plates over time; assay type: physicochemical; conditions: 3M 300LSE adhesive seal, 3-hour mark
Description: Behavioral Experiments with Volatile Anesthetics. Solutions of inhaled volatile anesthetics were stored in glass vials with minimal head space and were transferred utilizing Hamilton gas-tight syringes to prevent evaporative loss. Isoflurane (Primal Care) was stored at 4°C, and sevoflurane (AbbVie Inc.) was stored at -20°C. Solutions were made in DMSO and then diluted in glass scintillation vials to the desired experimental concentrations in E3 (embryo water). Each vial contained 22 mL of E3 which minimized head space to prevent drug loss. Vials were sealed quickly after addition of volatile anesthetics to minimize loss. Solutions were mixed via vortexing, and anesthetics dissolved readily in the final DMSO concentration of 2%. […]
have a significant change in zebrafish behavior. To assure consistent concentration of volatile anesthetic, this experiment was repeated without fish and concentrations were measured by HPLC. […]
1-Aminoanthracene Competition Fluorescence Assay. […] After filtration, the 1-AMA concentration was determined by UV−vis spectroscopy utilizing an experimentally determined extinction coefficient of 1-AMA (Σ368 = 4073 M−1 cm−1).4 Stock solutions of ligand were prepared in DMSO. […] The fluorescence curves were corrected by subtracting contributions from 1-AMA alone and HSAF alone. Fluorescence intensities at 515 nm were plotted as a percentage […]

[4] = at 20°C; no reference given; cited from earlier work
5 dpf larval zebrafish [5] = tested on: 5 dpf larval zebrafish; set-up: method as in PMID 32978423; conditions: 5 dpf zebrafish, previously determined; read-out: EC50 for EM of the anesthetic; cited from earlier work
5 dpf larval zebrafish [6] = tested on: 5 dpf larval zebrafish; set-up: method as in PMID 32978423; conditions: 5 dpf zebrafish, previously determined; read-out: EC50 for SM of the anesthetic; cited from earlier work
[7] = biological target: T1, horse spleen apoferritin (HSAF) (Equus caballus, UniProt P02791); test: 1-Aminoanthracene (1-AMA) competition fluorescence assay; assay type: binding
T1 construct: model protein HSAF (horse spleen apoferritin); purchased Sigma-Aldrich; host or cells: horse spleen (tissue-derived)
T1 sequence (P02791 2-175 limits assumed): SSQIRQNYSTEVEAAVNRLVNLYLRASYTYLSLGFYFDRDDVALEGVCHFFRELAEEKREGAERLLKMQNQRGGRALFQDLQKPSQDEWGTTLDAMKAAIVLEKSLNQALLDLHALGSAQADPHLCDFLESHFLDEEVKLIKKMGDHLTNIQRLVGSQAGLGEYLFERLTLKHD

5 dpf zebrafish = test: Antagonism of anesthesia after induction (sequential addition); assay type: in vivo; conditions: propofol 3 μM for 10 min, then propofol 3 μM plus 30 μM compound
Description: In the above studies, the anesthetic and PFAL compounds were co-administered to the fish simultaneously.
Figure 5 Further Characterization of Propofol Antagonism with Compounds 9 and 10. a and b 5 dpf zebrafish (n = 36) were first anesthetized with 3 μM propofol and then 30 μM of either compound 9 or 10 was added. Between minutes 5 and 10 there is a small gap in the data during which the propofol solution was removed and a solution containing propofol and PFAL compound was added. […] The mean and 95% CI is shown for each data point in all panels.
Behavioral experiments (screening, EC50 curves) were performed as previously reported. Antagonism after induction was conducted in a similar manner with different timepoints and solution changes as indicated. The DanioVision Observation Chamber (Noldus) and Ethovision XT16 software were used to track and record (1280 × 960 resolution at 25 frames per second) larval zebrafish (5 dpf) movement in glass 96-well plates (Zissner North America 3,600,500). […] An EM response using the Daniovision tapping device (8 out of 8 intensity, movement response measured for 1 s after stimulus) was also measured at the end of the SM observation period. […] Toxicity was measured in separate experiments by exposing larvae to compounds for 30 min, transferring to fresh E3, and then observing mortality after exposure.

[8] = 10 μM PFAL compound co-administered with propofol
[9] = 30 μM PFAL compound co-administered with propofol (0.3, 1, 5 μM)

CC(C)(C)c1ccccc1F [Compound 11, 1-tertbutyl-2-fluorobenzene]
Antagonism of propofol via EM (5 dpf larval zebrafish [1]; [8]): not to be statistically different than the propofol controls

Cc1ccccc1F [Compound 2, 1-methyl-2-fluorobenzene]
Antagonism of propofol via EM (5 dpf larval zebrafish [1]; [8]): not to be statistically different than the propofol controls

C1CCc2nnnn2CC1 [Pentylenetetrazole, pentylenetetrazole, reference compound]
Pattern of movement (5 dpf larval zebrafish [2]; known epileptogenic comparator): uncontrolled movement (seizure)

FC(F)OC(Cl)C(F)(F)F (centres unmarked) [Isoflurane]
Concentration remaining in sealed glass 96-well plate [3]: 96% | Vapor pressure [4]: 238 mmHg | EC50 (5 dpf larval zebrafish [5]): 180 µM | EC50 (5 dpf larval zebrafish [6]): 42 µM

CCc1ccc(CC)c(F)c1 [Compound 7, 1,4-diethyl-2-fluorobenzene]
Antagonism of propofol via EM (5 dpf larval zebrafish [1]; 30 μM PFAL compound co-administered with propofol): did not antagonize propofol | Antagonism of propofol via SM (5 dpf larval zebrafish [2]; [9]): showed antagonism of propofol; also recorded: statistically significant antagonism | Spontaneous movement (SM), compound alone (5 dpf larval zebrafish [2]): increased SM

CC(C)c1cccc(C(C)C)c1O [Propofol]
EC50 (5 dpf larval zebrafish [1]; Danio rerio, propofol alone, Fig. 4b): 3.53 µM | EC50 (5 dpf larval zebrafish [2]; Danio rerio, propofol alone, Fig. 4a): 0.14 µM | EC50 (5 dpf larval zebrafish [5]): 3.8 µM | EC50 (5 dpf larval zebrafish [6]): 0.1 µM

CC(C)c1ccc(C(C)C)c(F)c1 [Compound 10, 1,4-diisopropyl-2-fluorobenzene]
Inhibition of 1-AMA binding to HSAF ([7]; 15 μM 1-AMA, 15 μM HSAF dimer, ligand 1 to 125 μM): most potent inhibitors of 1-AMA binding | Shape of IC50 curve for 1-AMA displacement ([7]; Fig. 6b): incomplete inhibition of 1-AMA binding | Elicited movement (EM), compound alone (5 dpf larval zebrafish [1]; PFAL compound alone at 10 and 30 μM, versus DMSO control): increased EM | Schild-type analysis with EM (5 dpf larval zebrafish [1]; propofol EC50 curves (EM) at various concentrations of the compound, Fig. S6): no such relationship of antagonism was observed | Antagonism of propofol via SM (5 dpf larval zebrafish [2]; [8]): demonstrated antagonism of propofol | Antagonism of propofol via SM at 1 μM propofol (5 dpf larval zebrafish [2]; 10 μM PFAL compound, propofol 1 μM): able to antagonize propofol | Antagonism of propofol via SM at 5 μM propofol (5 dpf larval zebrafish [2]; 10 μM PFAL compound): did not show antagonism | Antagonism of propofol via SM (5 dpf larval zebrafish [2]; [9]): showed antagonism of propofol; also recorded: statistically significant antagonism | Antagonism of propofol via SM at 5 μM propofol (5 dpf larval zebrafish [2]; 30 μM PFAL compound): antagonized propofol | IC50 (5 dpf larval zebrafish [2]; Danio rerio, 120 h, 5 dpf zebrafish exposed to 3 μM propofol, Fig. 5d, read-out: IC50 (antagonism of propofol)): 25.3 µM | Spontaneous movement (SM), compound alone (5 dpf larval zebrafish [2]): increased SM | Increase of propofol EC50 versus propofol alone, spontaneous movement (5 dpf larval zebrafish [2]; propofol plus 30 μM compound, Fig. 4a): ~ fourfold | Reversal of established propofol immobility (5 dpf zebrafish): rapid reversal of propofol immobility

CC(C)(C)c1ccc(C(C)(C)C)c(F)c1 [Compound 13, 1,4-ditertbutyl-2-fluorobenzene]
Log(IC50), displacement of 1-AMA from HSAF ([7]; Fig. 6a, nb = non-binding): nb

FCOC(C(F)(F)F)C(F)(F)F [Sevoflurane]
Concentration remaining in sealed glass 96-well plate [3]: constant | Vapor pressure [4]: 157 mmHg | EC50 (5 dpf larval zebrafish [5]): 240 µM | EC50 (5 dpf larval zebrafish [6]): 76 µM
